Assay [1] concerns the target T1, S1P1 (Homo sapiens (Human), UniProt P21453). Kind of assay: 35S-GTPγS binding, membranes from CHO cells expressing S1P1. It counts as biochemical. Conditions: CHO cell membranes.
The target of assay [2] is T1, S1P1. Description: Receptor binding assay, [33P]sphingosine 1-phosphate, membranes from CHO cells expressing S1P1. Conditions: CHO cell membranes, 25 pM [33P]sphingosine 1-phosphate. As to the method:
(§1) Receptor binding assay: Membranes were prepared from CHO cells expressing S1P1 or S1P3 for use in ligand and […] binding studies. Cells were suspended in 50 mM TRIS, pH 7.4, 2 mM EDTA, 250 mM Sucrose (buffer A) and 1× Complete protease inhibitor cocktail (Roche), and disrupted at 4° C. by N2 decompression using a cell disruption bomb (Parr Instrument). Following centrifugation at 1000 RPM for 10 min at 4° C., the supernatant was suspended in buffer A and centrifuged again at 19000 RPM for 60 min at 4° C. The pellet was then suspended in 10 mM HEPES, pH 7.4, 1 mM EDTA, 250 mM Sucrose (Buffer B), and 1× Complete EDTA-free protease inhibitor cocktail and homogenized using a potter. Membranes were flash frozen in liquid N2 and stored at −80° C. [33P]sphingosine 1-phosphate (3000 Ci/mmol; American Radiolabeled Chemicals, Inc.) was added to test compounds in DMSO. Membranes and WGA SPA beads (GE Healthcare) were added to give a final volume of 100 μl in 96-well plates with assay concentrations of 25 pM or 10 pM [33P]sphingosine 1-phosphate (respectively for S1P1 or S1P3), 50 mM HEPES, pH 7.5, 5 mM MgCl2, 100 mM NaCl, 0.4% fatty acid-free BSA, 1-5 μg/well of proteins and 100 μg/well of WGA SPA beads. Binding was performed for 60 min at RT on a shaker and bound radioactivity was measured on a PerkinElmer 1450 MicroBeta counter. Specific binding was calculated by subtracting remaining radioactivity in the presence of 1000-fold excess of unlabeled SIP. Binding data were analyzed using the GraphPad Prism program.

A further assay has as its target S1P3 (Homo sapiens (Human), UniProt Q99500). Description: 35S-GTPγS binding, membranes from CHO cells expressing S1P3. In kind it is biochemical. Conditions: CHO cell membranes. Here is the method:
as §1
Measurements of 35S-GTPγS Binding: Membranes (1 to 10 μg protein) prepared as described above, were incubated in 96-well Scintiplates (PerkinElmer) with test compounds diluted in DMSO, in 180 μl of 20 mM HEPES, pH 7.4, 10 mM MgCl2, 2 μg/well Saponin, 0.2% fatty acid free BSA (Assay buffer), 140 mM NaCl and 1.7 μM GDP. The assay was initiated with the addition of 20 μl of 1.5 nM [35S]-GTPγS (1100 Ci/mmol; GE Healthcare) in assay buffer. After 60 min incubation at 30° C. on a shaker, plates were centrifuged for 10 min at 2000 RPM. Supernatant was discarded and membrane bound radioactivity was measured on a PerkinElmer 1450 MicroBeta counter. Triplicate samples were averaged and expressed as % response relative to S1P activation in absence of compound (n=2).
(GTPγS resists hydrolysis and so accumulates on activated G proteins.)

Sequence of S1P3 (Q99500 whole entry, species assumed): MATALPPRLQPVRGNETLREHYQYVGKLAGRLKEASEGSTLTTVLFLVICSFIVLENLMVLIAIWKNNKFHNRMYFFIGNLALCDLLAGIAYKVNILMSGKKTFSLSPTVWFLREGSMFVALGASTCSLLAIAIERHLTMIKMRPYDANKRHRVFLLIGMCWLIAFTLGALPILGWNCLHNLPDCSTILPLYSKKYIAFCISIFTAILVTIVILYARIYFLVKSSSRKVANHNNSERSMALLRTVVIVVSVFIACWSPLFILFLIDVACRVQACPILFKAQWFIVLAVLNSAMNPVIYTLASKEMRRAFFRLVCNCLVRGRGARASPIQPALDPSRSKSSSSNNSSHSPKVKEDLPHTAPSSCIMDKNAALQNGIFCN
T1 sequence (P21453 whole entry, species assumed): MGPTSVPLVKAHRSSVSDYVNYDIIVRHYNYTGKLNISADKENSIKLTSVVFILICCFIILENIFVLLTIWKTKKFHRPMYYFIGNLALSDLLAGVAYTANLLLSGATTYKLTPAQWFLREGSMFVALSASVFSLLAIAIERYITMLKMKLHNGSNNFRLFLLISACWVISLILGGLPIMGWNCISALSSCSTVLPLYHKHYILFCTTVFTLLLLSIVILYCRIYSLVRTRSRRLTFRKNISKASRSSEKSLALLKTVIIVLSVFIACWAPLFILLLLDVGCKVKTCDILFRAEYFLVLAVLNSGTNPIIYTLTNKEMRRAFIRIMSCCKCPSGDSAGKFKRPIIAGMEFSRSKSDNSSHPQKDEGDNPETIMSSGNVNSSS

A word on the EC50: it is the midpoint of the concentration-response curve. Low readings indicate an effect from little substance, high ones a need for much substance. Broadly, the Ki is a dissociation constant, usually derived from enzyme kinetics or from competition with a known ligand. Higher therefore signals lower affinity. With `Fc1ccc(F)c(-c2noc(-c3cnn(C4CCCCC4)c3-c3ccncc3)n2)c1` [Example 23, 5-(1-cyclohexyl-5-(pyridin-4-yl)-1H-pyrazol-4-yl)-3-(2,5-difluorophenyl)-1,2,4-oxadiazole], the concentration for a half-maximal effect (EC50) on S1P1 [1] is 4 nM. The Ki at S1P1 [2] stood at 5 nM.
As for `CC(C)Cn1ncc(-c2nc(-c3cccc(C(F)(F)F)c3)no2)c1-c1ccncc1` [Example 37, 4-(1-isobutyl-4-{3-[3-(trifluoromethyl)phenyl]-1,2,4-oxadiazol-5-yl}-1H-pyrazol-5-yl)pyridine], the results for the EC50 at S1P1 [1] and at S1P3 were 9 nM and greater than 20000 nM, respectively.
Consider `CN(C)Cc1ccc(-c2noc(-c3cnn(C4CCCCC4)c3-c3ccncc3)n2)cc1` [Example 41, 1-{4-[5-(1-cyclohexyl-5-pyridin-4-yl-1H-pyrazol-4-yl)-1,2,4-oxadiazol-3-yl]phenyl}-N,N-dimethylmethanamine], for which the 50% effective concentration (EC50) on S1P1 [1] stood at 9 nM; on S1P3, 486 nM.
Regarding `C[C@@H]1CCCC[C@@H]1n1ncc(-c2nc(-c3cc(F)ccc3F)no2)c1-c1ccccc1` [Example 47, 3-(2,5-difluorophenyl)-5-{1[(1S,2R)-2-methylcyclohexyl]-5-phenyl-1H-pyrazol-4-yl}-1,2,4-oxadiazole], the EC50 on S1P1 [1] is 8 nM; at S1P3, 571 nM.
On to `c1cc(-c2c(-c3nc(-c4ccc(Cn5ccnc5)cc4)no3)cnn2C2CCCCC2)ccn1` [Example 136, 4-{2-Cyclohexyl-4-[3-(4-imidazol-1-ylmethyl-phenyl)-[1,2,4]oxadiazol-5-yl]-2H-pyrazol-3-yl}-pyridine], for which the half-maximal effective concentration (EC50) at S1P3 worked out at 58.3 nM.
Turning to `Fc1ccc(F)c(-c2noc(-c3cnn(C4CCCCC4)c3-c3ccccc3)n2)c1` [Example 11], the concentration for a half-maximal effect (EC50) on S1P1 [1] was 6 nM; at S1P3, 142 nM. In addition, the affinity on S1P1 [2] corresponds to a Ki of 9 nM.
For the molecule `CC(C)Cn1ncc(-c2nc(-c3cc(F)ccc3F)no2)c1-c1ccccc1` [Example 12, 3-(2,5-difluorophenyl)-5-(1-isobutyl-5-phenyl-1H-pyrazol-4-yl)-1,2,4-oxadiazole], the midpoint of the response on S1P1 [1], the EC50, lay at 36 nM. Besides, the Ki on S1P1 [2] was 7 nM.
Taken in the same sequence, the figures for “4-[4-[3-(2,5-difluorophenyl)-1,2,4-oxadiazol-5-yl]-1-(2-fluorophenyl)-1H-pyrazol-5-yl]pyridine [Example 8]” were 3 nM and 3 nM.
On to `Fc1ccc(-n2ncc(-c3nc(-c4cc(F)ccc4F)no3)c2-c2ccccc2)cc1` [Example 6, 3-(2,5-difluorophenyl)-5-(1-(4-fluorophenyl)-5-phenyl-1H-pyrazol-4-yl)-1,2,4-oxadiazole], for which the EC50 on S1P1 [1] worked out at 235 nM. The molecule also gave an inhibition constant (Ki) at S1P1 [2] of 13 nM.
As for `FC(F)(F)c1cccc(-c2noc(-c3cnn(C4CCCCC4)c3-c3ccncc3)n2)c1` [Example 28, 4-(1-cyclohexyl-4-{3-[3-(trifluoromethyl)phenyl]-1,2,4-oxadiazol-5-yl}-1H-pyrazol-5-yl)pyridine], the 50% effective concentration (EC50) on S1P1 [1] stood at 16 nM; on S1P3, 2660 nM.
The molecule `CC(C)Cn1ncc(-c2nc(-c3cc(F)ccc3F)no2)c1-c1ccncc1` [Example 19, 4-{4-[3-(2,5-difluorophenyl)-1,2,4-oxadiazol-5-yl]-1-isobutyl-1H-pyrazol-5-yl}pyridine] had a 50% effective concentration (EC50) at S1P1 [1] of 18 nM. Moreover, the Ki at S1P1 [2] was 9 nM.
As for `CC(C)Cn1ncc(-c2nc(-c3ccc(CN4CC(C(=O)O)C4)cc3)no2)c1-c1ccncc1` [Example 79, 1-(4-(5-(1-isobutyl-5-(pyridin-4-yl)-1H-pyrazol-4-yl)-1,2,4-oxadiazol-3-yl)benzyl)azetidine-3-carboxylic acid], the EC50 on S1P1 [1] was 9.5 nM; on S1P3 it was 1470 nM. For the same molecule, at S1P1 [2], affinity was put at a Ki of 2.3 nM.
`c1cc(-c2c(-c3nc(-c4ccc(Cn5cncn5)cc4)no3)cnn2C2CCCCC2)ccn1` [Example 91, 3-(4-((1H-1,2,4-triazol-1-yl)methyl)phenyl)-5-(1-cyclohexyl-5-(pyridin-4-yl)-1H-pyrazol-4-yl)-1,2,4-oxadiazole]: the 50% effective concentration (EC50) stood at 8.5 nM at S1P1 [1] and 147 nM on S1P3.
As to `CC(C)Cn1ncc(-c2nc(-c3ccc(CNCCC(=O)O)cc3)no2)c1-c1ccncc1` [Example 89, 3-(4-(5-(1-isobutyl-5-(pyridin-4-yl)-1H-pyrazol-4-yl)-1,2,4-oxadiazol-3-yl)benzylamino)propanoic acid], the half-maximal effective concentration (EC50) on S1P1 [1] turned out to be 12 nM; at S1P3 it was 1640 nM.
As to `COCc1c(-c2nc(-c3cc(F)ccc3F)no2)cnn1-c1ccccc1` [Example 1, 3-(2,5-difluorophenyl)-5-(5-(methoxymethyl)-1-phenyl-1H-pyrazol-4-yl)-1,2,4-oxadiazole], the concentration giving a half-maximal response (EC50) at S1P1 [1] is 304 nM; on S1P3, greater than 20000 nM. On S1P1 [2], the affinity corresponds to a Ki of 272 nM.
On the same counts, the results for `O=C(O)C1CN(Cc2ccc(-c3noc(-c4cnn(C5CCCCC5)c4C4CCOCC4)n3)cc2)C1` [Example 97, 1-(4-(5-(1-cyclohexyl-5-(tetrahydro-2H-pyran-4-yl)-1H-pyrazol-4-yl)-1,2,4-oxadiazol-3-yl)benzyl)azetidine-3-carboxylic acid] are 1.4 nM, 138 nM and 0.7 nM.
Taken in the same sequence, the figures for `CC(C)Cn1ncc(-c2nc(-c3ccc(CN4CC(C(=O)O)C4)cc3)no2)c1C1CCOCC1` [Example 96, 1-(4-(5-(1-isobutyl-5-(tetrahydro-2H-pyran-4-yl)-1H-pyrazol-4-yl)-1,2,4-oxadiazol-3-yl)benzyl)azetidine-3-carboxylic acid] were 31 nM, 2250 nM and 6.5 nM.
Consider `O=C(O)C1CN(Cc2ccc(-c3noc(-c4cnn(C5CCCCC5)c4-c4ccncc4)n3)cc2)C1` [Example 42, 1-{4-[5-(1-cyclohexyl-5-pyridin-4-yl-1H-pyrazol-4-yl)-1,2,4-oxadiazol-3-yl]benzyl}azetidine-3-carboxylic acid], for which the EC50 worked out at 1 nM on S1P1 [1] and 1020 nM on S1P3.
Turning to `Cc1ccccc1-n1ncc(-c2nc(-c3cc(F)ccc3F)no2)c1-c1ccccc1` [Example 5, 3-(2,5-difluorophenyl)-5-(5-phenyl-1-o-tolyl-1H-pyrazol-4-yl)-1,2,4-oxadiazole], it took 255 nM to reach a half-maximal effect at S1P1 [1] (EC50). Further, affinity on S1P1 [2] was put at a Ki of 13 nM.
Regarding `CC(C)Cn1ncc(-c2nc(-c3ccc4[nH]ncc4c3)no2)c1-c1ccncc1` [Example 40, 5-[5-(1-isobutyl-5-pyridin-4-yl-1H-pyrazol-4-yl)-1,2,4-oxadiazol-3-yl]-1H-indazole], the EC50 was 11 nM on S1P1 [1] and 523 nM on S1P3.
In the case of `CC1CCCCC1n1ncc(-c2nc(-c3cc(F)ccc3F)no2)c1-c1ccncc1` (stereo not drawn) [Example 34, 4-[4-[3-(2,5-difluorophenyl)-1,2,4-oxadiazol-5-yl]-1-(2-methylcyclohexyl)-1H-pyrazol-5-yl]pyridine], the 50% effective concentration (EC50) is 6 nM at S1P1 [1] and 1610 nM on S1P3.
Regarding `CCOC(=O)Cn1ncc(-c2nc(-c3cc(F)ccc3F)no2)c1-c1ccccc1` [Example 13, ethyl {4-[3-(2,5-difluorophenyl)-1,2,4-oxadiazol-5-yl]-5-phenyl-1H-pyrazol-1-yl}acetate], at S1P1 [1], a half-maximal response (EC50) required 96 nM. On S1P1 [2], this molecule displayed a Ki of 23 nM.
Consider `CC(C)(C)Cn1ncc(-c2nc(-c3ccc(CN4CC(C(=O)O)C4)cc3)no2)c1-c1ccncc1` [Example 105, 1-(4-(5-(1-neopentyl-5-(pyridin-4-yl)-1H-pyrazol-4-yl)-1,2,4-oxadiazol-3-yl)benzyl)azetidine-3-carboxylic acid], for which, on S1P1 [1], a half-maximal effect (EC50) was put at 42 nM. The affinity at S1P1 [2], expressed as Ki, was 34 nM.
For `Fc1ccc(F)c(-c2noc(-c3cnn(-c4ccccc4)c3-c3ccccc3)n2)c1` [Example 3, 3-(2,5-difluorophenyl)-5-(1,5-diphenyl-1H-pyrazol-4-yl)-1,2,4-oxadiazole], the half-maximal effective concentration (EC50) at S1P1 [1] is 77 nM. At S1P1 [2], the affinity corresponds to a Ki of 8 nM.
As for `Fc1ccc(F)c(-c2noc(-c3cnn(C4CCCCC4)c3C3CCOCC3)n2)c1` [Example 31, 5-[1-cyclohexyl-5-(tetrahydro-2H-pyran-4-yl)-1H-pyrazol-4-yl]-3-(2,5-difluorophenyl)-1,2,4-oxadiazole], the figures for the EC50 on S1P1 [1] and at S1P3 were 12 nM and greater than 20000 nM, respectively.

Values taken from patent US8802663B2, “Pyrazole oxadiazole derivatives as S1P1 agonists” (Merck Serono SA, priority 2009, dated 2014).
